Reference: PMC12063055 (Crystal Growth & Design, 2025)
≈ marks a conversion by molar mass, not a printed value. Read-outs that look alike come from different tables or passages of the source.

Columns and labels:
[1] = high permeability but poor solubility in aqueous solution; ref [5],[6]; cited from earlier work
[2] = Solubility studies, shake-flask method with HPLC quantification of HAL; format: physicochemical; details: for solubility in KCl pH 1.2: buffer KCl (0.2 M) pH 1.2, 24 h stirring at 25 °C; for solubility in KCl pH 1.2 / solubility in PBS pH 6.8: HAL concentration by HPLC at 248 nm; for solubility in PBS pH 6.8: buffer PBS (0.2 M) pH 6.8, 24 h stirring at 25 °C; for improvement over HAL (solubility in KCl pH 1.2): buffer KCl pH 1.2, ratio to HAL solubility; for improvement over HAL (solubility in PBS pH 6.8): buffer PBS pH 6.8, ratio to HAL solubility
Procedure: A Scharlau (Barcelona, Spain) 100 C18 chromatographic column (3 μm, 150 × 4.6 mm) was set at 25 °C and used for compound separation, using an isocratic elution method. The mobile phase was composed of a mixture of 90% acetonitrile and 10% water. The flow rate was 0.8 mL/min, and the injection volume was 30 μL. ChemStation software was used for data acquisition and analysis (Agilent Technologies, Santa Clara, CA, USA).

[3] = Acidity values (pKa) of the molecules, literature values; format: physicochemical; details: pKa1 of HAL minus pKa1 of coformer
[4] = 25 °C, pH 1.2, aqueous buffer, thermodynamic from solid, read-out: solubility in KCl pH 1.2
[5] = 25 °C, pH 6.8, aqueous buffer, thermodynamic from solid, read-out: solubility in PBS pH 6.8

## O=C(CCCN1CCC(O)(c2ccc(Cl)cc2)CC1)c1ccc(F)cc1 [HAL, Haloperidol, reference compound]
[1]
  Biopharmaceutics Classification System (BCS) class: Class II
[2]; KCl buffer (0.2 M) pH 1.2, 25 °C, pH 1.2, aqueous buffer, thermodynamic from solid, read-out: solubility in KCl pH 1.2
  solubility at 24 h: 831 ± 42 µg/mL (≈ 2210 µM)
[2]; PBS buffer (0.2 M) pH 6.8, 25 °C, pH 6.8, aqueous buffer, thermodynamic from solid, read-out: solubility in PBS pH 6.8
  solubility at 24 h: 7 ± 1 µg/mL (≈ 18.6 µM)

## O=C(O)CCCC(=O)O [Glutaric acid, glutaric acid]
[3]
  ΔpKa1 (difference of acidity of the coformer with HAL): 3.71

## O=C(CCCN1CCC(O)(c2ccc(Cl)cc2)CC1)c1ccc(F)cc1.O=C(CCCN1CCC(O)(c2ccc(Cl)cc2)CC1)c1ccc(F)cc1.O=C(O)c1ccc(C(=O)O)cc1.O=C(O)c1ccc(C(=O)O)cc1 [(HAL^+)2·(TR^2–)·(TR)]
[2]
  solubility in KCl pH 1.2: 0.678 ± 0.019 mg/mL
  solubility in PBS pH 6.8: 0.051 ± 0.002 mg/mL

## O=C(O)CCCCCC(=O)O [Pimelic acid, pimelic acid]
[3]
  ΔpKa1 (difference of acidity of the coformer with HAL): 3.55

## O=C(CCCN1CCC(O)(c2ccc(Cl)cc2)CC1)c1ccc(F)cc1.O=C(O)CCCC(=O)O [HAL^+·GU^–]
[2]
  solubility in KCl pH 1.2: 1.021 ± 0.012 mg/mL
  solubility in PBS pH 6.8: 0.048 ± 0.001 mg/mL

## O=C(CCCN1CCC(O)(c2ccc(Cl)cc2)CC1)c1ccc(F)cc1.O=C(O)/C=C\C(=O)O [HAL^+·ME^–]
[2]; [4]
  solubility at 24 h: 1400 ± 20 µg/mL
[2]; [5]
  solubility at 24 h: 74 ± 4 µg/mL
[2]; both phases with C4 coformers
  solubility of the salt relative to the ionic cocrystal (HAL^+)2·(FU^2–)·(FU): twice

## O=C(CCCN1CCC(O)(c2ccc(Cl)cc2)CC1)c1ccc(F)cc1.O=C(CCCN1CCC(O)(c2ccc(Cl)cc2)CC1)c1ccc(F)cc1.O=C(O)CCCCCCC(=O)O.O=C(O)CCCCCCC(=O)O [(HAL^+)2·(SU^2–)·(SU)]
[2]
  solubility in KCl pH 1.2: 1.074 ± 0.036 mg/mL
  improvement over HAL (solubility in KCl pH 1.2): 1.3×
  solubility in PBS pH 6.8: 0.017 ± 0.001 mg/mL
  improvement over HAL (solubility in PBS pH 6.8): 2.3×

## O=C(CCCN1CCC(O)(c2ccc(Cl)cc2)CC1)c1ccc(F)cc1.O=C(CCCN1CCC(O)(c2ccc(Cl)cc2)CC1)c1ccc(F)cc1.O=C(O)/C=C/C(=O)O.O=C(O)/C=C/C(=O)O [(HAL^+)2·(FU^2–)·(FU)]
[2]; [4]
  solubility at 24 h: 1060 ± 27 µg/mL
[2]; [5]
  solubility at 24 h: 33 ± 4 µg/mL
[2]; pH 1.2, read-out: solubility in KCl pH 1.2
  solubility at 24 h: ~1000 µg/mL

## O=C(CCCN1CCC(O)(c2ccc(Cl)cc2)CC1)c1ccc(F)cc1.O=C(O)CCCCCC(=O)O [HAL^+·PI^–]
[2]
  solubility in KCl pH 1.2: 1.246 ± 0.035 mg/mL
  improvement over HAL (solubility in KCl pH 1.2): 1.5×
  solubility in PBS pH 6.8: 0.072 ± 0.001 mg/mL
  improvement over HAL (solubility in PBS pH 6.8): 9.7×

## O=C(CCCN1CCC(O)(c2ccc(Cl)cc2)CC1)c1ccc(F)cc1.O=C(O)CC(=O)O [HAL^+·MO^–]
[2]; [4]
  solubility at 24 h: 525 ± 37 µg/mL
[2]; [5]
  solubility at 24 h: 119 ± 2 µg/mL

## O=C(O)CCCCCCC(=O)O [Suberic acid, suberic acid]
[3]
  ΔpKa1 (difference of acidity of the coformer with HAL): 3.52
